Consider 2 compounds from patent US20120202693A1 (DOW AGROSCIENCES LLC, priority 2011, published 2012).

What all share (format): in vivo
Experiment [1] has as its system annual bluegrass (Poa annua, POAAN). Nature of the experiment: Postemergence herbicidal activity of mixtures under field conditions (vines), visual weed control. As to conditions: 27 days after application. As to the method:
(§1) Evaluation of Postemergence Herbicidal Activity of Mixtures under Field Conditions Methodology
(§2) Trial site was located in commercially grown vines of European grape (Vitis vinifera). The trial was conducted using normal research methodology. Trial plots were between 2 m wide by […] long. All treatments were applied using a randomized complete block trial design with 3 replications per treatment. The trial sites had naturally occurring populations of weeds. The weed spectrum included, but was not limited to, ryegrass (Lolium spp, LOLSS), scented mayweed (Matricaria chamomilla, MATCH), and annual bluegrass (Poa annua, POAAN).
(§3) Treatments consisted of tank mixes of an oil dispersion of penoxsulam and commercially available formulation of glyphosate applied in water. The application volume was 250 liters per hectare (L/ha). Application was made using a precision gas hand sprayer at 250 kPA pressure using a 2 m boom with flat fan (80015VS) nozzles to broadcast the treatments to the weeds and to the soil.
(§4) […] Ratings were based on Percent (%) Visual weed control, where 0 corresponds to no control and 100 corresponds to complete control.
(§5) Colby's equation was used to determine the herbicidal effects expected from the mixtures (Colby, S. R. Calculation of the synergistic and antagonistic response of herbicide combinations. Weeds 1967 15, 20-22).
(§6) The following equation was used to calculate the expected activity of mixtures containing two active ingredients, A and B:
(§7) A=observed efficacy of active ingredient A at the same concentration as used in the mixture;
(§8) B=observed efficacy of active ingredient B at the same concentration as used in the mixture.

Experiment [2] has as its system ryegrass (Lolium spp, LOLSS). Described as above. As to conditions: 61 days after application. Here is the method:
as §1, §2, §3, §4, §5, §6, §7, §8

In experiment [3] the test system is scented mayweed (Matricaria chamomilla, MATCH). Described as above. As to conditions: 27 days after application. As to the method:
as §1, §2, §3, §4, §5, §6, §7, §8

Experiment [4] deals with yellow nutsedge (Cyperus esculentus, CYPES). Put plainly: Postemergence herbicidal activity of mixtures in the greenhouse, visual weed control. As to conditions: 16 days after application. As to the method: (§9) Evaluation of Postemergence Herbicidal Activity of Mixtures in the Greenhouse
(§10) Seeds of the desired test plant species were planted in 80% mineral soil/20% grit planting mixture, which typically has a pH of 7.2 and an organic matter content of about 2.9 percent, in plastic pots with a surface area of 128 square centimeters (cm^2). The growing medium was steam sterilized. The plants were grown for 7-19 days in a greenhouse with an approximate 14-hour (h) photoperiod which was maintained at about 29° C. during the day and 26° C. during the night. Nutrients and water were added on a regular basis and supplemental lighting was provided with overhead metal halide 1000-Watt lamps as necessary. The plants were treated with postemergence foliar applications when they reached the second to fourth true leaf stage. All treatments were applied using a randomized complete block trial design, with 4 replications per treatment.
(§11) Compound requirements are based upon a 12 mL application volume at a rate of 187 liters per hectare (L/ha). Spray solutions of the mixtures were prepared by adding the stock solutions to the appropriate amount of dilution solution to form 12 mL spray solution with active ingredients in single and two way combinations. Formulated compounds were applied to the plant material with an overhead Mandel track sprayer equipped with 8002E nozzles calibrated to deliver 187 L/ha at a spray height of 18 inches ([…] (cm)) above average plant canopy. The weed spectrum included broadleaf signalgrass (Brachiaria platyphylla, BRAPP), yellow nutsedge (Cyperus esculentus, CYPES), barnyardgrass (Echinochloa crus-galli, ECHCG), momingglory (Ipomoea, hederacea, IPOHE), and Chinese sprangletop (Leptochloa chinensis, LEFCH).
(§12) The treated plants and control plants were placed in a greenhouse as described above and watered by sub-irrigation to prevent wash-off of the test compounds. Treatments were rated at 16 days after application (DAA) as compared to the untreated control plants. Visual weed control was scored on a scale of 0 to 100 percent where 0 corresponds to no injury and 100 corresponds to complete kill.
as §5, §6, §7, §8

In experiment [5] the test system is Chinese sprangletop (Leptochloa chinensis, LEFCH). The experiment is described as above. The settings on record: 16 days after application. As to the method: as §9, §10, §11, §12, §5, §6, §7, §8
The test system of experiment [6] is broadleaf signalgrass (Brachiaria platyphylla, BRAPP). Described as above. As to conditions: 16 days after application. As to the method:
as §9, §10, §11, §12, §5, §6, §7, §8

For experiment [7], the system named is morningglory (Ipomoea hederacea, IPOHE). The description is as above. The settings on record: 16 days after application. Here is the method:
as §9, §10, §11, §12, §5, §6, §7, §8

In experiment [8] the test system is barnyardgrass (Echinochloa crus-galli, ECHCG). The description is as above. As to conditions: 16 days after application. As to the method: as §9, §10, §11, §12, §5, §6, §7, §8
[9] abbreviates: Penoxsulam 20 grams ai/ha alone.
Where [10] appears, read: Penoxsulam 1.3 grams ai/ha alone.
Setting [11] is: Penoxsulam 2.5 grams ai/ha alone.
Setting [12] is: Penoxsulam 10 grams ai/ha alone.
[13] abbreviates: Glyphosate 720 grams ai/ha alone.
[14] abbreviates: Glyphosate (IPA salt) 210 grams ai/ha alone.

Several values for one entry are separate records, joined by “and”; a condition that tells them apart may be missing. Identical values can stand only once.

Turning to `COc1cnc(OC)n2nc(NS(=O)(=O)c3c(OCC(F)F)cccc3C(F)(F)F)nc12` [Penoxsulam, 2-(2,2-difluoroethoxy)-N-(5,8-dimethoxy-[1,2,4]triazolo[1,5-c]pyrimidin-2-yl)-6-(trifluoromethyl)benzenesulfonamide], the “POAAN Obs (Observed control)” value in experiment [1] (setting [9]) is 0%. Also, in experiment [2] (setting [9]), the “LOLSS Obs (Observed control)” value was found to be 0%. The “MATCH Obs (Observed control)” value in experiment [3] (setting [9]) was 0%. For the same compound, the “CYPES Obs (Observed control)” value in experiment [4] (setting [10]) is 5.8% and 6%; in experiment [4] (setting [11]), 31.8% and 32%; in experiment [4] (Penoxsulam 5 grams ai/ha alone), 44%; in experiment [4] (setting [12]), 65%. Further, the “LEFCH Obs (Observed control)” value was 5% in experiment [5] (setting [10]); 1% in experiment [5] (setting [11]); 2% in experiment [5] (Penoxsulam 5 grams ai/ha alone); 6.3% and 6% in experiment [5] (setting [12]). Also, the “BRAPP Obs (Observed control)” value is recorded as 9% in experiment [6] (setting [10]), 10% in experiment [6] (setting [11]) and 4% in experiment [6] (Penoxsulam 5 grams ai/ha alone). Also, the “IPOHE Obs (Observed control)” value in experiment [7] (setting [10]) was determined as 16%; in experiment [7] (setting [11]), 31%; in experiment [7] (Penoxsulam 5 grams ai/ha alone), 31%; in experiment [7] (setting [12]), 31%. Besides, the “ECHCG Obs (Observed control)” value in experiment [8] (setting [10]) is recorded as 63%; in experiment [8] (setting [11]) it was 62%.
`O=C(O)CNCP(=O)(O)O` [Glyphosate, N-(phosphonomethyl)glycine]: the “POAAN Obs (Observed control)” value in experiment [1] (setting [13]) is reported as 93%. The “LOLSS Obs (Observed control)” value in experiment [2] (setting [13]) came out at 60%. Moreover, the “MATCH Obs (Observed control)” value in experiment [3] (setting [13]) came to 50%. Besides, the entries for the “LEFCH Obs (Observed control)” value in experiment [5] (Glyphosate (IPA salt) 53 grams ai/ha alone) and in experiment [5] (setting [14]) were 1% and 41%, respectively. Besides, the “BRAPP Obs (Observed control)” value in experiment [6] (Glyphosate (IPA salt) 110 grams ai/ha alone) is 15%. In addition, in experiment [7] (setting [14]), the “IPOHE Obs (Observed control)” value was 31%.
